Read-outs that look alike come from different tables or passages of the source.
Legend:
[1] = system: macrophages; set-up: method as in Dos Santos et al. [2022]; conditions: ref Dos Santos et al. [2022], cited from earlier work
[2] = system: intracellular amastigotes of L. braziliensis; assay: In vitro leishmanicidal activity against intracellular amastigotes in infected U-937 macrophages (flow cytometry); assay type: cell-based, Leishmania braziliensis; conditions: for EC50: Leishmania braziliensis
Procedure: Infective L. braziliensis (MHOM/CO/88/UA301-eGFP) (Pulido et al. [2012]) were cultured in Novy-MacNeal-Nicolle (NNN) biphasic medium at 26 °C for 3 passages maximum. U-937 cells, prepared as described in the previous section, were adjusted to approximately 3 × 10^5 cells per mL of supplemented RPMI 1640 medium containing […] of PMA to induce cell adherence. One mL was dispensed into each well of a 24-well plate and platters were incubated at 37 °C in % CO2, 95% humidity atmosphere for 72 h. Then, adherent cells were infected with fluorescent promastigotes of L. braziliensis in a 15:1 parasite to cell ratio. Plates were incubated again at 34 °C and % CO2, 95% humidity atmosphere. After 24 h, non-phagocytosed parasites were washed by pipetting phosphate buffered solution (PBS) in the plate at room temperature and 500 µL of fresh complete RPMI 1640 medium was added. Then, 500 µL of each serial dilution of QUE, PIP, CUR, and amphotericin B was added to each well and plates were incubated at 34 °C with % CO2, 95% humidity atmosphere. The EC50, the median effective concentration to induce […] killing of the intracellular amastigotes in infected cells, was measured by Flow cytometry at 488 nm of excitation and 525 nm of emission. After 48 h of incubation, cells were harvested with cold dissociation buffer (1x PBS with 2% EDTA) and the harvested cells were washed with buffer (1 × PBS with 2% FBS), and results were analyzed by FlowJo 10. The EC50 was determined with a non-lineal regression using Prism GraphPad 10.
The LC50 and the EC50 were calculated by Probit analysis using GraphPad Prism 10 (San Diego, CA, USA). Both cytotoxicity and leishmanicidal activity were defined by ranges of values of LC50 and EC50 in terms of high, moderate, or low as follows: high cytotoxicity for LC50 values < 100 µM, moderate cytotoxicity for LC50 values > 100 µM but < 200 µM, and low cytotoxicity for LC50 values > 200 µM. […] In addition, the cytotoxicity in U937 macrophages was correlated with the leishmanicidal activity by calculating the Selectivity Index (SI), using the equation: SI = LC50/EC50 (Indrayanto et al. [2021]).

[3] = system: L. braziliensis; set-up: method as in Dos Santos et al. [2022]; conditions: oral 20 mg/kg five times a week, from 7 days after infection for 8 weeks; ref Dos Santos et al. [2022]; cited from earlier work
[4] = system: L. braziliensis amastigotes; set-up: method as in Dos Santos et al. [2022]; conditions: ref Dos Santos et al. [2022], read-out: antiamastigote activity EC50; cited from earlier work
[5] = system: L. braziliensis-induced cutaneous leishmaniasis ulcers; assay: Histopathological analysis (H-E) of healed ulcers from treated hamsters; assay type: in vivo, golden hamsters (Mesocricetus auratus); set-up: key to Dermis: oedema (grade) / Dermis: granulomatous inflammation (grade) / Epidermis: orthokeratotic hyperkeratosis (grade) / Epidermis: spongiosis (grade) / Epidermis: ulcer (grade) / Dermis: neovascularization (grade) / Dermis: fibroplasia (grade) / Dermis: leukocytic infiltrate (grade): 0, absent; 1, mild; 2, mild to moderate; 3, moderate; 4, moderate to severe; 5, severe
Procedure: The changes were analyzed under a standard optical microscope.

[6] = system: L. braziliensis; conditions: n = 6
Description: Golden hamsters (Mesocricetus auratus) were purchased from Charles River Laboratories (Wilmington MA, USA) and bred under specific pathogen-free conditions at the animal facility unit of the Universidad de Antioquia in Medellín, Colombia. Six- to eight-week-old, male, and female hamsters were used for the experiments. Animal experimentation protocols including handling of the animals, sample collection, and euthanasia were done in compliance of the Center for Diseases Control and Prevention guidelines for Safe Work Practices in Human and Animal Medical Diagnostic Laboratories and ARRIVE guidelines (Percie du Sert et al. [2020b]; Khairani et al. [2022]) and approved by the Institutional Ethical Committee for animal experimentation (Act No. 152 of June 01, 2023) (Percie du Sert et al. [2020a]; Khairani et al. [2022]).
Hamsters were anesthetized with ketamine (80 mg/kg, i.p.) and xylazine (15 mg/Kg) before infection and then, ∼1 × 10^8 promastigotes in stationary phase (6 days-old growth) were inoculated into the dorsum dermis (Robledo et al. [2012]). When hamsters developed ulcers larger than 12.5 mm^2, hamsters were randomly distributed into 4 groups (n = 6, each): (1) group treated with QUE (1 mg/day), (2) group treated with PIP (2.5 mg/day), (3) group treated with CUR (1.5 mg/day), (4) group treated with meglumine antimoniate (treatment control group, 200 µg/mL, intralesional). No vehicle control group was included in the present study because castor oil additive is a nonionic surfactant commonly used as an excipient in pharmaceutical formulations, particularly in solubilizing poorly water-soluble drugs. It is widely used as an ingredient in cosmetics for its conditioning properties, based on occlusive action, reducing water loss, and having a nourishing effect on the skin, hair, and nails (Marwat et al. [2017]; Khairani et al. [2022]).
Hamsters were treated daily with 40 µL of the corresponding formulation for 2 weeks, applying it directly over the lesion, while hamsters treated with meglumine antimoniate received treatment three times per week for 4 weeks. Lesion area was measured every week for 90 days with an electronic digital caliper. The body weight gain or loss was supervised every 2 weeks during the study. At the end of the study, hamsters were euthanized with an i.p. injection of ketamine (600 mg/kg) and xylazine (30 mg/kg). The experiments were carried out under normal laboratory lighting conditions. After necropsy, biopsies from healed and unhealed ulcers were removed and fixed in 10% buffered formalin, processed, and stained with hematoxylin–eosin (H-E) stain for histopathology analysis. The changes were analyzed under a standard optical microscope.

[7] = healed ulcer after topical treatment

**Q.** What does the source list for O=c1c(O)c(-c2ccc(O)c(O)c2)oc2cc(O)cc(O)c12 [Quercetin, quercetin]?
**A.** concentration giving substantial decrease in macrophage viability [1]: exceeding 640 µM; EC50 ([1]; read-out: macrophage viability, estimated EC50): 478 ± 89 µM; SI (Selectivity Index = LC50/EC50) ([2]; LC50 U-937 / EC50 L. braziliensis amastigotes): > 20.6; EC50 ([2]; U-937, amastigote stage of L. braziliensis, read-out: in vitro antileishmanial activity (EC50 in mass units)): 9.7 ± 0.6 µg/mL; EC50 ([2]; intracellular amastigotes of L. braziliensis in U-937 macrophages, 48 h, read-out: EC50 (Median Effective Concentration)): 32 ± 2 µM; Leishmanicidal activity ([2]; class by EC50 on intracellular amastigotes of L. braziliensis): High (high activity corresponds to EC50 values < 50 µM); lesion size and parasite load (lesion and draining lymph node) [3]: effectively controlled the lesion size and reduced the parasite load; EC50 [4]: 21 ± 2.5 µM; granulomas and amastigotes in healed skin ([5]; H-E stain, healed skin after topical treatment): No amastigotes are observed; Dermis: fibroplasia (grade) [5, 7]: 3; Dermis: granulomatous inflammation (grade) [5, 7]: 0; Dermis: leukocytic infiltrate (grade) [5, 7]: 3; Dermis: neovascularization (grade) [5, 7]: 2; Dermis: oedema (grade) [5, 7]: 2; Epidermis: orthokeratotic hyperkeratosis (grade) [5, 7]: 2; Epidermis: spongiosis (grade) [5, 7]: 2; Epidermis: ulcer (grade) [5, 7]: 0; treatment failures ([6]; topical daily for 15 days): No failures; therapeutic response (hamsters cured) ([6]; topical in castor oil daily for 15 days, QUE 1 mg/day, CUR 1.5 mg/day, PIP 2.5 mg/day, followed 90 days): 100%

— paper PMC11023993, “Piperine, quercetin, and curcumin identified as promising natural products for topical treatment of cutaneous leishmaniasis” (Parasitology Research, 2024)
